Results: BigSolDB 2.1

CCCSc1ccc2nc(NC(=O)OC)[nH]c2c1
solubility (mole fraction)
Details | in acetone | in ethanol | in ethyl acetate | in isobutyl acetate | in isopropanol | in methanol | in n-butanol | in n-butyl acetate | in n-propanol | in n-propyl acetate
278.15 K | 0.00148 | 5.59e-05 | 0.00053 | 0.000491 | 9.89e-05 | 9.62e-05 | 0.00021 | 0.000553 | 0.00017 | 0.000468
283.15 K | 0.00173 | 7.25e-05 | 0.000596 | 0.000542 | 0.000128 | 0.000114 | 0.000254 | 0.000609 | 0.000192 | 0.00054
288.15 K | 0.00204 | 9.39e-05 | 0.000688 | 0.000594 | 0.000156 | 0.000133 | 0.000298 | 0.000691 | 0.00023 | 0.000598
293.15 K | 0.00253 | 0.00011 | 0.000805 | 0.000671 | 0.000187 | 0.000157 | 0.000343 | 0.000783 | 0.000276 | 0.000673
298.15 K | 0.00302 | 0.00014 | 0.000925 | 0.000749 | 0.000234 | 0.000174 | 0.000402 | 0.000873 | 0.000325 | 0.000777
303.15 K | 0.00349 | 0.000182 | 0.00103 | 0.000799 | 0.000272 | 0.000205 | 0.000473 | 0.000983 | 0.000371 | 0.000858
308.15 K | 0.00389 | 0.000234 | 0.00119 | 0.000873 | 0.000328 | 0.000257 | 0.000558 | 0.0011 | 0.000423 | 0.000962
313.15 K | 0.00442 | 0.000297 | 0.00133 | 0.000964 | 0.000394 | 0.000298 | 0.00063 | 0.0012 | 0.000488 | 0.00106
318.15 K | 0.00528 | 0.000364 | 0.0015 | 0.00109 | 0.000456 | 0.000363 | 0.000738 | 0.00132 | 0.000569 | 0.00117
323.15 K | 0.00589 | 0.000452 | 0.00167 | 0.00119 | 0.000553 | 0.000428 | 0.000829 | 0.00146 | 0.000624 | 0.0013
